System: HIV-1 single-round infectious reporter virus
Test: microbe, parasite or virus in culture
Format: cell-based
Conditions: for EC50: Human immunodeficiency virus 1, HeLa-CD4/CCR5, 72 h, read-out: EC50 Group from Table 1; for inhibition at 10 µM: Human immunodeficiency virus 1, HeLa-CD4/CCR5, read-out: % Inhibition @ 10 uM

Compound	EC50 [nM]	inhibition at 10 µM [%]
O=C(C(=O)N1CCN(C(=O)c2ccccc2)CC1)c1c[nH]c2c(-c3ncco3)ccc(F)c12 [Example 73]	< 1000	> 98
O=C(Nc1ccccn1)c1ccc(F)c2c(C(=O)C(=O)N3CCN(C(=O)c4ccccc4)CC3)c[nH]c12 [Example 38]	< 1000	> 98
O=C(C(=O)N1CCN(C(=O)c2ccccc2)CC1)c1c[nH]c2c(-c3nc4ccccc4o3)ccc(F)c12 [Example 18]	< 1000	> 98
CCn1nnc(-c2ccc(F)c3c(C(=O)C(=O)N4CCN(C(=O)c5ccccc5)CC4)c[nH]c23)n1 [Example 23]	< 1000	> 98
C[C@@H]1CN(C(=O)c2ccccn2)CCN1C(=O)C(=O)c1c[nH]c2c(-c3ncon3)ccc(F)c12 [Example 192]	< 1000	
Cc1n[nH]c(-c2ccc(F)c3c(C(=O)C(=O)N4CCN(C(=O)c5ccccc5)CC4)c[nH]c23)n1 [Example 78]	< 1000	
CCCNC(=O)NNC(=O)c1ccc(F)c2c(C(=O)C(=O)N3CCN(C(=O)c4ccccc4)CC3)c[nH]c12 [Example 135]	< 1000	
O=C(NCc1cccs1)c1ccc(F)c2c(C(=O)C(=O)N3CCN(C(=O)c4ccccc4)CC3)c[nH]c12 [Example 51]	< 1000	> 98
COC(=O)CNc1nc(-c2ccc(F)c3c(C(=O)C(=O)N4CCN(C(=O)c5ccccc5)CC4)c[nH]c23)no1 [Example 140]	< 1000	
N/C(=N\O)c1ccc(F)c2c(C(=O)C(=O)N3CCN(C(=O)c4ccccn4)CC3)c[nH]c12 [Example 183]	< 1000	
CC(C)NC(=O)NNC(=O)c1ccc(F)c2c(C(=O)C(=O)N3CCN(C(=O)c4ccccc4)CC3)c[nH]c12 [Example 134]	< 1000	
C[C@@H]1CN(C(=O)c2ccccc2)CCN1C(=O)C(=O)c1c[nH]c2c(-c3nnn(C)n3)ccc(F)c12 [Example 175]		> 98
C[C@@H]1CN(C(=O)c2ccccc2)CCN1C(=O)C(=O)c1c[nH]c2c(C(=O)N(C)C)cccc12 [Example 65]	< 1000	70
CC(C)(C)OC(=O)N1CCN(C(=O)C(=O)c2c[nH]c3c(/C(N)=N/O)ccc(F)c23)CC1 [Example 121]	< 1000	
CNC(=O)c1ccc(F)c2c(C(=O)C(=O)N3CCN(C(=O)c4ccccc4)CC3)c[nH]c12 [Example 47]	< 1000	> 98
O=C(C(=O)N1CCN(C(=O)c2ccccc2)CC1)c1c[nH]c2c(-c3nn[nH]n3)ccc(F)c12 [Example 20]	< 1000	> 98
COc1ccc(-c2ccco2)c2[nH]cc(C(=O)C(=O)N3CCN(C(=O)c4ccccc4)CC3)c12 [Example 11]	< 1000	> 98
C[C@@H]1CN(C(=O)c2ccccn2)CCN1C(=O)C(=O)c1c[nH]c2c(-c3noc(C(Cl)(Cl)Cl)n3)ccc(F)c12 [Example 187]	< 1000	
O=C(C(=O)N1CCN(C(=O)c2ccccn2)CC1)c1c[nH]c2c(-c3nn[nH]n3)ccc(F)c12 [Example 32]	< 1000	> 98
C[C@@H]1CN(C(=O)c2ccccc2)CCN1C(=O)C(=O)c1c[nH]c2c(-c3noc(=O)[nH]3)ccc(F)c12 [Example 176]	< 1000	
CN(C)c1nc(-c2ccc(F)c3c(C(=O)C(=O)N4CCN(C(=O)c5ccccc5)CC4)c[nH]c23)no1 [Example 156]	< 1000	
CCCn1nnc(-c2ccc(F)c3c(C(=O)C(=O)N4CCN(C(=O)c5ccccc5)CC4)c[nH]c23)n1 [Example 24]	< 1000	> 98
O=C(C(=O)N1CCN(C(=O)c2ccccc2)CC1)c1c[nH]c2c(-c3ccsc3)ccc(F)c12 [Example 13]	< 1000	> 98

Compound	EC50 [nM]	inhibition at 10 µM [%]
CCOC(=O)c1cc(-c2ccc(F)c3c(C(=O)C(=O)N4CCN(C(=O)c5ccccc5)CC4)c[nH]c23)on1 [Example 87]	< 1000	
O=C(C(=O)N1CCN(C(=O)c2ccccc2)CC1)c1c[nH]c2c(-c3cnc[nH]3)ccc(F)c12 [Example 85]	< 1000	
COC(CNC(=O)c1ccc(F)c2c(C(=O)C(=O)N3CCN(C(=O)c4ccccc4)CC3)c[nH]c12)OC [Example 72]	< 1000	> 98
C[C@@H]1CN(C(=O)c2ccccc2)CCN1C(=O)C(=O)c1c[nH]c2c(-c3noc(C(F)(F)F)n3)ccc(F)c12 [Example 180]	< 1000	
COCCNC(=O)c1ccc(F)c2c(C(=O)C(=O)N3CCN(C(=O)c4ccccc4)CC3)c[nH]c12 [Example 152]	< 1000	
COc1ccc(-c2ccc(F)c3c(C(=O)C(=O)N4CCN(C(=O)c5ccccc5)CC4)c[nH]c23)cc1 [Example 4]	< 1000	> 98
O=C(C(=O)N1CCN(C(=O)c2ccccc2)CC1)c1c[nH]c2c(-c3cccs3)ccc(F)c12 [Example 12]	< 1000	> 98
N#CCCCn1nnc(-c2ccc(F)c3c(C(=O)C(=O)N4CCN(C(=O)c5ccccc5)CC4)c[nH]c23)n1 [Example 115]	< 1000	
O=C(C(=O)N1CCN(C(=O)c2ccccc2)CC1)c1c[nH]c2c(-c3nc4ccccc4[nH]3)ccc(F)c12 [Example 76]	< 1000	> 98
CONC(=O)c1ccc(F)c2c(C(=O)C(=O)N3CCN(C(=O)c4ccccc4)CC3)c[nH]c12 [Example 46]	< 1000	> 98
C[C@@H]1CN(C(=O)c2ccccc2)CCN1C(=O)C(=O)C1CNc2c(C(=O)O)cccc21 (stereo partly drawn) [Example 215, 1-benzoyl-3-(R)-methyl-4-[(7-carboxyindolin-3-yl)-2-oxoacetyl]piperazine]	< 1000	
COC(=O)c1c[nH]c(-c2ccc(F)c3c(C(=O)C(=O)N4CCN(C(=O)c5ccccc5)CC4)c[nH]c23)n1 [Example 146]	< 1000	
C[C@@H]1CN(C(=O)c2ccccc2)CCN1C(=O)C(=O)c1c[nH]c2c(-c3noc(C4CC4)n3)ccc(F)c12 [Example 179]	< 1000	
O=C(C(=O)N1CCN(C(=O)c2ccccc2)CC1)c1c[nH]c2c(-c3n[nH]c(CCl)n3)ccc(F)c12 [Example 194]	< 1000	
O=C(C(=O)N1CCN(C(=O)c2ccccc2)CC1)c1c[nH]c2c(-c3ccccn3)ccc(F)c12 [Example 5]	< 1000	> 98
COC(=O)Cn1cnc(-c2ccc(F)c3c(C(=O)C(=O)N4CCN(C(=O)c5ccccc5)CC4)c[nH]c23)n1 [Example 144]	< 1000	
CC1CN(C(=O)C(=O)c2c[nH]c3c(-c4ncon4)ccc(F)c23)CCN1C(=O)c1ccccc1 (stereo not drawn) [Example 123]	< 1000	
COc1ccc(C(N)=O)c2[nH]cc(C(=O)C(=O)N3CCN(C(=O)c4ccccc4)CC3)c12 [Example 148]	< 1000	
O=C(NC1=NCCS1)c1ccc(F)c2c(C(=O)C(=O)N3CCN(C(=O)c4ccccc4)CC3)c[nH]c12 [Example 36]	< 1000	> 98
O=C(O)c1cc(-c2ccc(F)c3c(C(=O)C(=O)N4CCN(C(=O)c5ccccc5)CC4)c[nH]c23)[nH]n1 [Example 88]	< 1000	
O=C(Nc1nc2ccccc2[nH]1)c1ccc(F)c2c(C(=O)C(=O)N3CCN(C(=O)c4ccccc4)CC3)c[nH]c12 [Example 41]	< 1000	> 98
N/C(=N\O)c1ccc(F)c2c(C(=O)C(=O)N3CCN(C(=O)c4ccccc4)CC3)c[nH]c12 [Example 27]	< 1000	> 98

From patent publication US6573262B2, “Composition and antiviral activity of substituted indoleoxoacetic piperazine derivatives” (priority 2000, dated 2003)
